Measurements: PubChem BioAssay (NCI)
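Briefly, cells in 96-well plates were exposed to five compound concentrations for 48 h, and endpoints were estimated by linear interpolation. The concentration for full growth arrest is given as TGI.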

Assays:
Assay in all cases: DTP human tumour cell line panel, 48 h
[1] = test system: 786-0 renal
[2] = test system: A498 renal
[3] = test system: A549 NSCLC
[4] = test system: ACHN renal
[5] = test system: CAKI-1 renal
[6] = test system: CCRF-CEM leukemia
[7] = test system: COLO 205 colon
[8] = test system: DU-145 prostate
[9] = test system: EKVX NSCLC
[10] = test system: HCC-2998 colon
[11] = test system: HCT-116 colon
[12] = test system: HCT-15 colon
[13] = test system: HL-60(TB) leukemia
[14] = test system: HOP-62 NSCLC
[15] = test system: HOP-92 NSCLC
[16] = test system: HS 578T breast
[17] = test system: HT29 colon
[18] = test system: IGROV1 ovarian
[19] = test system: K-562 leukemia
[20] = test system: KM12 colon
[21] = test system: LOX IMVI melanoma
[22] = test system: M14 melanoma
[23] = test system: MALME-3M melanoma
[24] = test system: MCF7 breast
[25] = test system: MDA-MB-231 breast
[26] = test system: MDA-MB-435
[27] = test system: MDA-N
[28] = test system: MOLT-4 leukemia
[29] = test system: NCI-H226 lung
[30] = test system: NCI-H23 lung
[31] = test system: NCI-H460 lung
[32] = test system: NCI-H522 lung
[33] = test system: NCI/ADR-RES ovarian
[34] = test system: OVCAR-3 ovarian
[35] = test system: OVCAR-4 ovarian
[36] = test system: OVCAR-5 ovarian
[37] = test system: OVCAR-8 ovarian
[38] = test system: PC-3 prostate
[39] = test system: RPMI-8226 leukemia
[40] = test system: RXF 393 renal
[41] = test system: SF-268 CNS
[42] = test system: SF-295 CNS
[43] = test system: SF-539 CNS
[44] = test system: SK-MEL-2 melanoma
[45] = test system: SK-MEL-28 melanoma
[46] = test system: SK-MEL-5 melanoma
[47] = test system: SK-OV-3 ovarian
[48] = test system: SN12C renal
[49] = test system: SNB-19 CNS
[50] = test system: SNB-75 CNS
[51] = test system: SR leukemia
[52] = test system: SW-620 colon
[53] = test system: T-47D breast
[54] = test system: TK-10 renal
[55] = test system: U251 CNS
[56] = test system: UACC-257 melanoma
[57] = test system: UACC-62 melanoma
[58] = test system: UO-31 renal

O=C1c2ccccc2C2=Cc3ccccc3C(O)N12 (stereo not drawn)
TGI [1]: > 100 µM
TGI [2]: > 100 µM
TGI [3]: > 100 µM
TGI [4]: > 100 µM
TGI [5]: 43.2 µM
TGI [6]: > 100 µM
TGI [7]: > 100 µM
TGI [8]: > 100 µM
TGI [9]: > 100 µM
TGI [10]: > 100 µM
TGI [11]: > 100 µM
TGI [12]: > 100 µM
TGI [13]: 64.1 µM
TGI [14]: > 100 µM
TGI [15]: > 100 µM
TGI [16]: > 100 µM
TGI [17]: > 100 µM
TGI [18]: > 100 µM
TGI [19]: > 100 µM
TGI [20]: > 100 µM
TGI [21]: > 100 µM
TGI [22]: > 100 µM
TGI [23]: > 100 µM
TGI [24]: > 100 µM
TGI [25]: > 100 µM
TGI [26]: > 100 µM
TGI [27]: > 100 µM
TGI [28]: 91.9 µM
TGI [29]: > 100 µM
TGI [30]: > 100 µM
TGI [31]: > 100 µM
TGI [32]: 40.8 µM
TGI [33]: > 100 µM
TGI [34]: > 100 µM
TGI [35]: > 100 µM
TGI [36]: > 100 µM
TGI [37]: > 100 µM
TGI [38]: > 100 µM
TGI [39]: > 100 µM
TGI [40]: 83.8 µM
TGI [41]: > 100 µM
TGI [42]: > 100 µM
TGI [43]: > 100 µM
TGI [44]: > 100 µM
TGI [45]: > 100 µM
TGI [46]: > 100 µM
TGI [47]: > 100 µM
TGI [48]: > 100 µM
TGI [49]: > 100 µM
TGI [50]: > 100 µM
TGI [51]: 83.5 µM
TGI [52]: > 100 µM
TGI [53]: > 100 µM
TGI [54]: > 100 µM
TGI [55]: > 100 µM
TGI [56]: > 100 µM
TGI [57]: 65.3 µM
TGI [58]: 35 µM
